Reference: paper PMC5227004, “Native ESI Mass Spectrometry Can Help to Avoid Wrong Interpretations from Isothermal Titration Calorimetry in Difficult Situations” (Journal of the American Society for Mass Spectrometry, 2016)

How the values were obtained:
[1] = molecular target: T1, DNA-polymerase processivity factor (β-ring) from Escherichia coli (Escherichia coli, UniProt P0A988); test: Native ESI-MS titration of peptide binding to the E. coli β-ring; conditions: βE.coli; processing taking into account separately the species R3
T1 sequence (P0A988 whole entry, looked up): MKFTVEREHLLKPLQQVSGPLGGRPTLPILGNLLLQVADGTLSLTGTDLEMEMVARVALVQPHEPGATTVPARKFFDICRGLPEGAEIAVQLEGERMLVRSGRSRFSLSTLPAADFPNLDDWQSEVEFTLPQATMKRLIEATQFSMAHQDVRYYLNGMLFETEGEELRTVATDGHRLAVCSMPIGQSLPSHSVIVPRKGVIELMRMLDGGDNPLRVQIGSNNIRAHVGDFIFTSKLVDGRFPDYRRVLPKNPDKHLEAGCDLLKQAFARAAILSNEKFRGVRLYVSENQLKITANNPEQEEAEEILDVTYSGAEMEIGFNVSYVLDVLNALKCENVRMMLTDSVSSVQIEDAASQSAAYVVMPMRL

[2] = molecular target: T1, DNA-polymerase processivity factor (β-ring) from Escherichia coli; test: Isothermal titration calorimetry (ITC) of peptide binding to the E. coli β-ring; conditions: βE.coli
Experimental: We used an iTC200 from Microcal (now Microcal-Malvern, UK) operated in the high-gain mode. […] In short, the β -rings were initially in the cell at concentrations ranging from 20 to 60 μM and the peptides were in the syringe at concentrations ranging from 200 to 600 μM. The buffer was Hepes 10 mM, pH 7.4, supplemented with NaCl 150 mM and EDTA 3 mM. Experiments were performed at different temperatures from 15 to 34 °C.
The processing of the ITC data was first performed with the same model as the one used for ESI-MS (one specific binding site per monomer). […] The advantage of this still unusual method is of fitting several titration curves with a minimum set of free parameters. All K d values obtained by ITC were corrected for 22.5 °C, which was the incubation temperature used in ESI-MS experiments. This was performed by using the Van’t Hoff equation: ∂ ln K d/∂T = − ΔH/(RT ^2), where ΔH is the variation of enthalpy during complex formation and R = 8.314 J mol^−1 K^−1 the gas constant. Note that such a correction is quite justified for K d values obtained by ITC since the primary output from ITC is precisely the enthalpic term ΔH governing the evolution of K d with the temperature.
This competition model requires determining a fixed fraction f 1 of the protein monomers binding their ligand according to a dissociation constant K d1 and an enthalpy variation ΔH 1, and a fixed fraction f 2 = 1 − f 1 binding their ligand according to a dissociation constant K d2 and an enthalpy variation ΔH 2 (we consider K d2 < K d1).

[3] = model with two competing modes of binding on the same site

## CC(=O)N[C@@H](CCC(N)=O)C(=O)N[C@@H](CC(C)C)C(=O)N[C@@H](CC(=O)O)C(=O)N[C@@H](CC(C)C)C(=O)N[C@@H](Cc1ccccc1)C(=O)O [P6]
[1]
  P, probability of GPD (ESI-MS, Equations 4): 0.0528
[2]; [3]
  ΔH1 (ITC), weaker binding mode: ≈ 1 kcal mol^−1
  ΔH2 (ITC), stronger binding mode: ≈ –12 kcal mol^−1
[2]; simple model with one binding mode, at 25 °C
  ΔH (ITC), one binding mode: ≈ –11.8 ± 0.2 kcal mol^−1
